The values that follow come from paper PMC5642494 (Oncotarget, 2017).

Read-outs that look alike come from different tables or passages of the source.

Test [1] deals with MCF7 cells. The experiment in a line: TCA metabolite profiling by LC/MS in MCF7. The test is classed as cell-based, human. To be noted: for EC50: Homo sapiens, MCF7, MCF7, single experiment, read-out: EC50 α-ketoglutarate; for Aspartate level / Citrate level / Fumarate level / Glutamate level / Isocitrate level / Lactate level / Malate level / Pyruvate level / Succinate level / α-ketoglutarate level: MCF7, 3 DT, normalized to DMSO = 1, n = 3. As to the method: MCF7 cells were plated at 20,000 cells/well in 24-well plate; approximately 14–24 hours after seeding, cells were treated with DMSO (vehicle) or the indicated compounds diluted in DMSO. Cells were incubated for three different incubation times: 48 hours (1 DT), 96 hours (2 DT), and […] (3 DT). After treatment, cells were harvested and the collected pellet was stored at -80°C. For additional details see Supplemental Methods and Supplementary Table 1. […]
SA-β-gal Cell samples were lysed after treatment with expression was determined using the Senescence Cells 100 µL lysis buffer and transferred to a 96-well plate.
Histochemical Staining Kit (Sigma, CS0030) following 30 µL of each sample were transferred into deep well the vendor ’s manual. Images were taken at 100x by bright plates using TECAN-EVO Workstation. Samples were field microscopy (Leica DMiL). treated for derivatization of the metabolites of interest and internal standards. For this, 50 µL of derivatization reagent
Proliferation studies after washouts (EdU Click- and 80 µL of internal standard (IS, SupplementaryTable iT®) 1), were added with multidrop, plates were vortexed for 5 mins and let sit for one hour at 4 °C. The IS used were the Cells were plated onto poly-D-lysine D or 13C-labeled commercial analogues of nine of the ten coated 96-well plates at a density of 2,000–6,000 metabolites, prepared at 25 µM in water (Supplementary viable cells per well, and treated with abemaciblib or Table 1). The derivatization reagents (from Sigma), palbociclib at 1µM following the cell treatment and 3-nitrophenylhydrazine (0.5 M) and the coupling buffer washout schedule shown on Supplementary Figure 1A. [N-(3-Dimethylaminopropyl)-N′-ethylcarbodiimide An EdU (5-ethynyl-2’-deoxyuridine) pulse was added hydrochloride (1M) were freshly prepared in 75:24:1 one hour prior to the end of study at a final concentration methanol/water/pyridine. of 10 µM as described in the kit protocol (Click-iT After derivatization, a liquid-liquid extraction step High Content Imaging EdU Incorporation kit (Life with ethyl acetate was carried out in two steps; the upper Technologies cat# C10351)). The cells were then fixed phase was transferred to a new deep-well plate with in the presence of 3.7% formaldehyde for 20 minutes at TECAN-EVO, and the joint extract was evaporated to 37°C, and permeabilized with 0.1% Triton-X 100 in PBS dryness with nitrogen, and reconstituted with 50% H2O/ for 10 minutes at 25°C, then washed twice with PBS. MetOH. A set of calibrants at 12 levels of the analytes They were blocked using 1% bovine serum albumin was derivatized in parallel following the same protocol.
(BSA) (Invitrogen #15260-037) for 1 hour at 25°C. EdU Samples were analyzed by LC─MS/MS under the detection was performed using the Click-iT High Content conditions described below. […]
Mass Spectrometer (qQq) with JetStream Electrospray
Objects were identified using an algorithm to Ionization (ESI) Source, coupled to a LC1290 Infinity detect nuclear staining with Hoechst 33342 dye. The High-Performance Liquid Chromatograph. The software relative levels and sub-cellular localization of EdU were for data collection and treatment was Agilent Masshunter determined through the respective intensities and locations Workstation. Mobile phases for chromatography were: of Alexa-488 fluorescence. mobile phase A: formic acid (5 mM) and ammonium formate (10 mM) in water; mobile phase B: acetonitrile.
Assessment of hypermethylation of histone H3 at 50% Acetonitrile/water were used to clean the lysine 9 (H3K9me3) injection needle after each injection. A reverse-phase chromatographic column (XBridge BEH C18 3.5 µm, MCF7 and EFM-19 cells were plated in 96-well 2.1 × 50 mm) from […] plates and treated at 20 µM (or a 3-fold dilution series) was used as stationary phase. Chromatographic separation […]
Tecan Genesis RSP100 liquid-handling system was used mobile phase A in 6 min; then to 5% in 0.1 min, maintained […]

The test system of test [2] is FOXM1. The experiment in a line: FOXM1 protein expression, EFM-19. The test is classed as cell-based. To be noted: Homo sapiens, 1 DT, read-out: IC50 reduction in FOXM1 positive cells. As to the method:
Relative IC50/EC50 values were determined by curve fitting to a four parameter logistic equation: Y = bottom + ((top-bottom)/ (1+exp(HillSlope*(X – LnIC50)), where X is the natural log of dose/concentration, Y is response, decreasing as X increases, top and bottom are plateaus in the same units as Y, lnIC50 is the natural log of potency, in the same log units as X, and HillSlope measures the steepness of the curve. Data were plotted using GraphPad Prism.
After 72 hours, cells were stained with an anti-FOXM1 antibody and a secondary goat anti-rabbit IgG, Alexa Fluor® 488 conjugate; nuclei were stained with propidium iodide (PI). Alternatively, for assessment of Ki-67 levels, cells were treated for 2 DT and then stained with Ki-67 and a secondary goat anti-rabbit IgG, Alexa Fluor® 488 conjugate. Plates were read in an Acumen Explorer Ex3 (TTP Labtech) using Cellista software and the percentages of FOXM1 positive and Ki-67 positive cells were calculated over the background signal. Data were normalized in Excel using the mean value obtained from treatment with 2 µM BEZ235 as the minimum and the mean value obtained from treatment with 0.2% DMSO as the maximum.

In the case of `CCN1CCN(Cc2ccc(Nc3ncc(F)c(-c4cc(F)c5nc(C)n(C(C)C)c5c4)n3)nc2)CC1` [abemaciclib, Abemaciclib], in test [1] (1 DT), the EC50 is 370 nM. Besides, in test [1] (2 DT), the EC50 came to 280 nM. Besides, the EC50 in test [1] (3DT) was 730 nM. Besides, in test [1] (0.5 µM), the Aspartate level is 0.72 ± 0.10, the Citrate level is on record as 1.20 ± 0.27, the Fumarate level was determined as 0.12 ± 0.02 and the Glutamate level is given as 0.71 ± 0.06. In test [1] (0.5 µM), the Isocitrate level is given as 1.90 ± 0.65, the Lactate level was found to be 0.30 ± 0.02, the Malate level came out at 0.22 ± 0.01 and the Pyruvate level was 1.22 ± 0.64. Also, in test [1] (0.5 µM), the Succinate level came out at 0.35 ± 0.08 and the α-ketoglutarate level was 0.13 ± 0.03. Further, in test [1] (2 µM), the Aspartate level is on record as 0.47 ± 0.13, the Citrate level was 1.07 ± 0.3, the Fumarate level was 0.12 ± 0.07 and the Glutamate level turned out to be 1.10 ± 0.38. In test [1] (2 µM), the Isocitrate level came out at 0.81 ± 0.52, the Lactate level was 0.38 ± 0.15, the Malate level is on record as 0.09 ± 0.03 and the Pyruvate level came to 3.59 ± 1.65. In addition, in test [1] (2 µM), the Succinate level is reported as 0.65 ± 0.23 and the α-ketoglutarate level was 0.08 ± 0.02. The IC50 in test [2] worked out at 8 nM.
